In US11524944B2, “2-phenylpyrimidine-4-carboxamides as AHR inhibitors” (Bayer Aktiengesellschaft, priority 2017, dated 2022) one finds IC50 data, which are given here for 20 compounds.

Molecules are shown by their SMILES.

The first experiment concerns the target T1, Human AhR (Homo sapiens, UniProt P35869).
T1 construct: host or cells: U87 glioblastoma cells, stably transfected with a DRE firefly luciferase reporter and a constitutive renilla reporter
T1 sequence (P35869 11-848): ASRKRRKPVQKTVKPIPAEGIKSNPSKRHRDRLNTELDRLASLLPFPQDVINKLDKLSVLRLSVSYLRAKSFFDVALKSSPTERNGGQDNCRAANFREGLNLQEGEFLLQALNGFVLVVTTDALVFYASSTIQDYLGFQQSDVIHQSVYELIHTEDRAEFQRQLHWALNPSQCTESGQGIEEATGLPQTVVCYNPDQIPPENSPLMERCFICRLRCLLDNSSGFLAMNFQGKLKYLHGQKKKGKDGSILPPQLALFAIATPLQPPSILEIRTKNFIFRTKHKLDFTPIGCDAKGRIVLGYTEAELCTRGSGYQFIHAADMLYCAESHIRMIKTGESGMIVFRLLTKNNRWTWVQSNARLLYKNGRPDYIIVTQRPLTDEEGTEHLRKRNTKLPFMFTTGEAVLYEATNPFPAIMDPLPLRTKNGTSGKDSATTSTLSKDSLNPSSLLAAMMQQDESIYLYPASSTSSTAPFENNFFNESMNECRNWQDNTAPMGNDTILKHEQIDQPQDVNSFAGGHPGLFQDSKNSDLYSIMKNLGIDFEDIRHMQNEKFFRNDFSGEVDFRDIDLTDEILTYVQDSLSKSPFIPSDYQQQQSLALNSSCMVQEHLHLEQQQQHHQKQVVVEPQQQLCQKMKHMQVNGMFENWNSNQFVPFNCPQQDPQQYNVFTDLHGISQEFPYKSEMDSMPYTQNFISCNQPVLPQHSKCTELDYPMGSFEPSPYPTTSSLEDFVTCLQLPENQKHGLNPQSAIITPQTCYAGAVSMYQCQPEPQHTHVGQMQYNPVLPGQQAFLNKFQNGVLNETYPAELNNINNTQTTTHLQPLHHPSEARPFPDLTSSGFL
Kind of experiment: Transactivation assay in human cell line (in vitro assay 1): antagonism. Type of experiment: cell-based. Conditions: U87 glioblastoma cells, AHR inducible firefly luciferase reporter (DRE), 150 μM kynurenic acid, 20 hours. The procedure: (§1) Examples were tested in selected biological assays one or more times. When tested more than once, data are reported as either average values or as median values, wherein • the average value, also referred to as the arithmetic mean value, represents the sum of the values obtained divided by the number of times tested, and • the median value represents the middle number of the group of values when ranked in ascending or descending order. If the number of values in the data set is odd, the median is the middle value. If the number of values in the data set is even, the median is the arithmetic mean of the two middle values.
Transactivation Assay in Human Cell Line (In Vitro Assay 1)
Transactivation assay was carried out in U87 glioblastoma cells (ATCC) endogenously expressing AHR. In addition the cells were stably transfected with an AHR inducible firefly luciferase reporter gene construct that carried AHR-binding sites (DRE) in its promoter and a renilla reporter gene construct with constitutively active promoter. Kynurenic acid is an endogenous AHR activating ligand and was used to prestimulate test cells prior to testing the antagonistic properties of compounds.
In Vitro Assay 1: Antagonism in Human Cell Line
Firefly luciferase and Renilla activity was determined by the DualGlo Luciferase Assay System (Promega, #2920). Renilla activity was used to assess toxic effects of compounds.
A word on the IC50: it is the concentration at which inhibition is half-maximal. A low value points to higher potency. Take `CC(C)(O)CNC(=O)c1cc(-c2ccc(Cl)cc2)nc(-c2cc(F)cc(C(F)(F)F)c2)n1` [Example 58, 6-(4-chlorophenyl)-2-[3-fluoro-5-(trifluoromethyl)phenyl]-N-(2-hydroxy-2-methylpropyl)pyrimidine-4-carboxamide]: half-maximal inhibition (IC50) was put at 77.6 nM. Take `CC(C)(O)CNC(=O)c1cc(-c2ccc(Cl)cc2)nc(-c2cc(F)cc(C#N)c2)n1` [Example 62, 6-(4-chlorophenyl)-2-(3-cyano-5-fluorophenyl)-N-(2-hydroxy-2-methylpropyl)pyrimidine-4-carboxamide]: it took 57.8 nM to reach half-maximal inhibition (IC50). The IC50 values of the last two compounds are within 1.5-fold of each other. For `C[C@@H](CO)NC(=O)c1cc(-c2ccc(Cl)cc2)nc(-c2cc(Cl)cc(Cl)c2)n1` [Example 67, 6-(4-chlorophenyl)-2-(3,5-dichlorophenyl)-N-[(2S)-1-hydroxypropan-2-yl]pyrimidine-4-carboxamide], the IC50 was found to be 101 nM. Compared with the last compound, the IC50 is about 1.7-fold higher. For the compound `C[C@@H](CO)NC(=O)c1cc(-c2ccc(Cl)cc2)nc(-c2ccc(F)c(C#N)c2)n1` [Example 68, 6-(4-chlorophenyl)-2-(3-cyano-4-fluorophenyl)-N-[(2S)-1-hydroxypropan-2-yl]pyrimidine-4-carboxamide], the IC50 turned out to be 102 nM. Same read-out and setting: the figure for `C[C@@H](CO)NC(=O)c1cc(-c2ccc(Cl)cc2)nc(-c2ccc(Cl)c(Cl)c2)n1` [Example 72, 6-(4-chlorophenyl)-2-(3,4-dichlorophenyl)-N-[(2S)-1-hydroxypropan-2-yl]pyrimidine-4-carboxamide] is 361 nM; for `C[C@@H](CO)NC(=O)c1cc(-c2ccc(Cl)cc2)nc(-c2ccc(OC(F)(F)F)cc2)n1` [Example 73, 6-(4-chlorophenyl)-N-[(2S)-1-hydroxypropan-2-yl]-2-[4-(trifluoromethoxy)phenyl]pyrimidine-4-carboxamide] it is 9720 nM.

`C[C@@H](CO)NC(=O)c1cc(-c2ccc(Cl)cc2)nc(-c2cc(F)cc(C(F)(F)F)c2)n1` [Example 75, 6-(4-chlorophenyl)-2-[3-fluoro-5-(trifluoromethyl)phenyl]-N-[(2S)-1-hydroxypropan-2-yl]pyrimidine-4-carboxamide] had an IC50 of 97.8 nM. Still for that read-out and setting: the figure for `Cc1cc(F)cc(-c2nc(C(=O)N[C@@H](C)CO)cc(-c3ccc(Cl)cc3)n2)c1` [Example 77, 6-(4-chlorophenyl)-2-(3-fluoro-5-methylphenyl)-N-[(2S)-1-hydroxypropan-2-yl]pyrimidine-4-carboxamide] is 26.4 nM; for `CC(O)C(NC(=O)c1cc(-c2ccc(OC(F)(F)F)cc2)nc(-c2cccc(F)c2)n1)C(F)(F)F` (centres unmarked) [Example 91, 2-(3-fluorophenyl)-N-(1,1,1-trifluoro-3-hydroxybutan-2-yl)-6-[4-(trifluoromethoxy)phenyl]pyrimidine-4-carboxamide] it is over 20000 nM.

For the next experiment, the target named is T2, Mouse AhR (Mus musculus, UniProt P30561).
T2 sequence (P30561 1-848 P471L/N533S/M589L): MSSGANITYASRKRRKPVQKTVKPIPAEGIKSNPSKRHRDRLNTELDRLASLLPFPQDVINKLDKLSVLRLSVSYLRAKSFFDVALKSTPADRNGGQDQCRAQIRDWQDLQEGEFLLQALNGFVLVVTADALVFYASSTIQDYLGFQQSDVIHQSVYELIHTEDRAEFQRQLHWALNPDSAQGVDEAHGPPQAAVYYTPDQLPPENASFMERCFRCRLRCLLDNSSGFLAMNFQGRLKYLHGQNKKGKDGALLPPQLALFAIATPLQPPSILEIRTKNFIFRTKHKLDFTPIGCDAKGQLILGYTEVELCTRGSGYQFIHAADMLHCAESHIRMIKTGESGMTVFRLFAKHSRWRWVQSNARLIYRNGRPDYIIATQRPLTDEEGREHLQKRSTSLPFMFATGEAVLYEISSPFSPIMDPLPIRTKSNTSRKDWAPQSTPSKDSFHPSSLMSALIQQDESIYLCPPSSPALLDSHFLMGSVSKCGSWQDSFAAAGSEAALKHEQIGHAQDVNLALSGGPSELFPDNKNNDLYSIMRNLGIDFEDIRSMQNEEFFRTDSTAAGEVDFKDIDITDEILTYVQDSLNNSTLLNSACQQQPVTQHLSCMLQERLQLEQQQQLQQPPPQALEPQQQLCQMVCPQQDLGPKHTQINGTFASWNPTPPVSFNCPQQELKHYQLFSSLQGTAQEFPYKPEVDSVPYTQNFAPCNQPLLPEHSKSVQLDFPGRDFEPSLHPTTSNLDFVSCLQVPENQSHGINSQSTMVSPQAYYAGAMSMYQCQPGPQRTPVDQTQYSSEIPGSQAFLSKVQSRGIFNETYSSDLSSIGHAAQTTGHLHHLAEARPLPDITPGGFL
As to the kind of experiment: Transactivation assay in mouse cell line (in vitro assay 2): antagonism. It is filed as cell-based. Conditions: Hepa 1c1c7 cells, AHR inducible firefly luciferase reporter (DRE), 200 μM kynurenic acid, 20 hours. The procedure:
as §1
Transactivation Assay in Mouse Cell Line (In Vitro Assay 2)
Transactivation assay was carried out in Hepa 1c1c7 cells (ATCC #CRL-2026) endogenously expressing AHR. In addition the cells were stably transfected with an AHR inducible firefly luciferase reporter gene construct that carried AHR-binding sites (DRE) in its promoter. Kynurenic acid is an endogenous AHR activating ligand and was used to prestimulate test cells prior to testing the antagonistic properties of compounds.
In Vitro Assay 2: Antagonism in Mouse Cell Line
Firefly luciferase activity was determined by the SteadyGlo Luciferase Assay System (Promega, #E2550).
With `Cc1cccc(-c2nc(C(=O)NCC(C)(C)O)cc(-c3ccc(OC(F)(F)F)cc3)n2)c1` [Example 16, N-(2-hydroxy-2-methylpropyl)-2-(3-methylphenyl)-6-[4-(trifluoromethoxy)phenyl]pyrimidine-4-carboxamide], the midpoint of inhibition, the IC50, lay at 12.9 nM. `Cc1cc(-c2nc(C(=O)NCC(C)(C)O)cc(-c3ccc(OC(F)(F)F)cc3)n2)ccc1F` [Example 17, 2-(4-fluoro-3-methylphenyl)-N-(2-hydroxy-2-methylpropyl)-6-[4-(trifluoromethoxy)phenyl]pyrimidine-4-carboxamide] registered a half-maximal inhibitory concentration (IC50) of 637 nM. Compound `CC(C)(O)CNC(=O)c1cc(-c2ccc(OC(F)(F)F)cc2)nc(-c2ccc(Cl)c(Cl)c2)n1` [Example 22, 2-(3,4-dichlorophenyl)-N-(2-hydroxy-2-methylpropyl)-6-[4-(trifluoromethoxy)phenyl]pyrimidine-4-carboxamide] gave an IC50 of 278 nM. `CC(C)(O)CNC(=O)c1cc(-c2ccc(OC(F)(F)F)cc2)nc(-c2cc(F)cc(F)c2)n1` [Example 24, 2-(3,5-difluorophenyl)-N-(2-hydroxy-2-methylpropyl)-6-[4-(trifluoromethoxy)phenyl]pyrimidine-4-carboxamide] returned an IC50 of 28.3 nM. `C[C@@H](CO)NC(=O)c1cc(-c2ccc(OC(F)(F)F)cc2)nc(-c2cccc(Cl)c2)n1` [Example 37, 2-(3-chlorophenyl)-N-[(2S)-1-hydroxypropan-2-yl]-6-[4-(trifluoromethoxy)phenyl]pyrimidine-4-carboxamide]: the IC50 came out at 8.49 nM.

With `C[C@@H](CO)NC(=O)c1cc(-c2ccc(OC(F)(F)F)cc2)nc(-c2cc(F)cc(F)c2)n1` [Example 39, 2-(3,5-difluorophenyl)-N-[(2S)-1-hydroxypropan-2-yl]-6-[4-(trifluoromethoxy)phenyl]pyrimidine-4-carboxamide], the IC50 was determined as 12.3 nM. The same measure, in the same setting: the figure for `Cc1cccc(-c2nc(C(=O)NCC(C)(C)O)cc(-c3ccc(Cl)cc3)n2)c1` [Example 48, 6-(4-chlorophenyl)-N-(2-hydroxy-2-methylpropyl)-2-(3-methylphenyl)pyrimidine-4-carboxamide] is 26 nM; for `Cc1cc(-c2nc(C(=O)NCC(C)(C)O)cc(-c3ccc(Cl)cc3)n2)ccc1F` [Example 49, 6-(4-chlorophenyl)-2-(4-fluoro-3-methylphenyl)-N-(2-hydroxy-2-methylpropyl)pyrimidine-4-carboxamide] it is 406 nM; for `CC(C)(O)CNC(=O)c1cc(-c2ccc(Cl)cc2)nc(-c2ccc(F)c(Cl)c2)n1` [Example 50, 2-(3-chloro-4-fluorophenyl)-6-(4-chlorophenyl)-N-(2-hydroxy-2-methylpropyl)pyrimidine-4-carboxamide] it is 53.8 nM. As to `Cc1cc(F)cc(-c2nc(C(=O)NCC(C)(C)O)cc(-c3ccc(Cl)cc3)n2)c1` [Example 60, 6-(4-chlorophenyl)-2-(3-fluoro-5-methylphenyl)-N-(2-hydroxy-2-methylpropyl)pyrimidine-4-carboxamide], half-maximal inhibition (IC50) was put at 908 nM. This IC50 lies about 17-fold higher than the previous one. As for `C[C@@H](CO)NC(=O)c1cc(-c2ccc(Cl)cc2)nc(-c2cccc(Cl)c2)n1` [Example 71, 2-(3-chlorophenyl)-6-(4-chlorophenyl)-N-[(2S)-1-hydroxypropan-2-yl]pyrimidine-4-carboxamide], the IC50 is 13.6 nM. Compared with the last compound, the IC50 is about 67-fold lower.
